As a reminder, the IC50 is the concentration at which inhibition is half-maximal.

Where a name gives a salt, the structure may show the parent alone.

The assay concerns the target T1, TBK1 (Homo sapiens, UniProt Q9UHD2).
T1 construct: All protein kinases were of human origin and encoded full length proteins, unless indicated otherwise; His6; made in house; host or cells: insect Sf21 cells
T1 sequence (Q9UHD2 1-729): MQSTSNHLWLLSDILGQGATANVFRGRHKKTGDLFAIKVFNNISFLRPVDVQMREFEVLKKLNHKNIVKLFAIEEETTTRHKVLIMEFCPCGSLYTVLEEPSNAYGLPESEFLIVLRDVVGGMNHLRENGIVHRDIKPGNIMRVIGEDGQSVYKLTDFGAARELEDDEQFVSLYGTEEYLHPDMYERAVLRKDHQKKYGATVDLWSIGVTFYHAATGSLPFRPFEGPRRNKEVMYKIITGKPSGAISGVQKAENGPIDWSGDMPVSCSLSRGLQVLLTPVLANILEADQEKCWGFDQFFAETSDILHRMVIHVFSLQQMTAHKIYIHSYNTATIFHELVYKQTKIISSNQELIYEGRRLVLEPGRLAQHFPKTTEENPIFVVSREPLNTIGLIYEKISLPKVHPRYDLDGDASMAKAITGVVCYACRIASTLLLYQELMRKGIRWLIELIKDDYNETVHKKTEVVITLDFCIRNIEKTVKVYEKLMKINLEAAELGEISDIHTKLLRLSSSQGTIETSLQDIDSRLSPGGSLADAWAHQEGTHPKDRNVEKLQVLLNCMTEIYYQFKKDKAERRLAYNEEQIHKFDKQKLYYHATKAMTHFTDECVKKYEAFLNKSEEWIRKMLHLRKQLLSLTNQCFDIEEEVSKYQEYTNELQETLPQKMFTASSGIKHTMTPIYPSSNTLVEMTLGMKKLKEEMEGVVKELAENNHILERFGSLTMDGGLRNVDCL
The experiment in a line: TBK1 protein kinase assay ([γ-33P]ATP, P81 filterplates). The class given is biochemical. The conditions noted are these: 50 μM ATP; read-out: Potency (TBK1 IC50 potency score). The text has this:
All protein kinases were of human origin and encoded full length proteins, unless indicated otherwise. They were either expressed as glutathione S-transferase (GST) fusion proteins in Escherichia Coli or as hexahistidine (His6)-tagged proteins in insect Sf21 cells. GST fusion proteins were purified by affinity chromatography on glutathione-Sepharose, and His6-tagged proteins on nickel/nitriloacetate-agarose. The procedures for expressing some of the protein kinases used herein have been detailed previously.^8,9 The following sections outline the DNA vectors synthesised and the procedures used to express and purifying protein kinases that have not been reported previously.
The following kinases were expressed in Sf21 cells: Aurora B and Aurora C, extra-cellular signal-regulated kinase 8 (ERK8), microtubule affinity regulating kinase 3 (MARK3), protein kinase Bα[118-480][S473D], protein kinase Bβ (PKBβ[120-481][S474D], 3-phosphoinositide-dependent protein kinase-1 [52-556]
Assays were performed for 30 min using Multidrop Micro reagent dispensers (Thermo Electron Corporation, Waltham, Mass. 02454, USA) in a 96-well format. The concentration of magnesium acetate in the assays was 10 mM and the [γ-33P] ATP (800 cpm/pmol) was used at 5, 20 or 50 μM as indicated, in order to be at or below the Km for ATP for each enzyme. Protein kinases assayed at 5 μM ATP were: —ERK1, ERK8, PKBα, MARK3, Aurora C. Protein kinases assayed at 20 μM ATP were: —JNK1, PDK1, CHK1, CHK2, CDK2 and Aurora B. Protein kinases assayed at 50 μM ATP were: —MNK2, IKKepsilon and TBK1.
The assays were initiated with MgATP, stopped by addition of 5 μl of 0.5 M orthophosphoric acid and spotted on to P81 filterplates using a unifilter harvester (PerkinElmer, Boston, Mass. 02118, USA). The IC50 values of inhibitors were determined after carrying out assays at 10 different concentrations of each compound.
ERK1 and ERK8 were both assayed against myelin basic protein (MBP, 0.33 mg/ml). MARK3 was assayed against the peptide […] (300 μM), MNK2 against the eIF4E protein (0.5 mg/ml). PKBβ was assayed against the peptide […] (30 μM). TBK1 were assayed against ([…]) (300 μM). The substrates used for other protein kinases were described previously.^8,9
Unless stated otherwise, enzymes were diluted in 50 mM Tris/HCl pH 7.5, 0.1 mM EGTA, 1 mg/ml BSA, 0.1% (v/v) 2-mercaptoethanol and assayed in 50 mM Tris/HCl pH 7.5, 0.1 mM EGTA, 0.1% (v/v) 2-mercaptoethanol.
For the compound `Cn1cnc(C(=O)NCCCNc2nc(Nc3cccc(F)c3)ncc2C2CC2)c1` [Example 10, 1-Methyl-1H-imidazole-4-carboxylic acid {3-[5-cyclopropyl-2-(3-fluoro-phenylamino)-pyrimidin-4-ylamino]-propyl}-amide trifluoroacetic acid salt], the IC50 lay in the range of 1000 to 10000 nM.
With `O=C(NCCCNc1nc(Nc2cccc(F)c2)ncc1C1CC1)c1cncs1` [Example 11, Thiazole-5-carboxylic acid {3-[5-cyclopropyl-2-(3-fluoro-phenylamino)-pyrimidin-4-ylamino]-propyl}-amide] the figure was less than 100 nM.
With `Cc1ccc(C(=O)NCCCNc2nc(Nc3cccc(F)c3)ncc2C2CC2)s1` [Example 12, 5-Methyl-thiophene-2-carboxylic acid {3-[5-cyclopropyl-2-(3-fluoro-phenylamino)-pyrimidin-4-ylamino]-propyl}-amide] the figure was 100 to 1000 nM.
As to `Cc1n[nH]c(C)c1C(=O)NCCCNc1nc(Nc2cccc(F)c2)ncc1C1CC1` [Example 13, 3,5-Dimethyl-1H-pyrazole-4-carboxylic acid {3-[5-cyclopropyl-2-(3-fluoro-phenylamino)-pyrimidin-4-ylamino]-propyl}-amide], the IC50 was 1000 to 10000 nM.
With `O=C(NCCCNc1nc(Nc2cccc(F)c2)ncc1C1CC1)C1CCOC1` (centres unmarked) [Example 14, Tetrahydro-furan-3-carboxylic acid {3-[5-cyclopropyl-2-(3-fluoro-phenylamino)-pyrimidin-4-ylamino]-propyl}-amide] the figure was less than 100 nM.
The value for `O=C(NCCCNc1nc(Nc2cccc(F)c2)ncc1C1CC1)C1CCCO1` (centres unmarked) [Example 15, Tetrahydro-furan-2-carboxylic acid {3-[5-cyclopropyl-2-(3-fluoro-phenylamino)-pyrimidin-4-ylamino]-propyl}-amide] was 100 to 1000 nM.
With `Cn1cccc1C(=O)NCCCNc1nc(Nc2cccc(F)c2)ncc1C1CC1` [Example 16, 1-Methyl-1H-pyrrole-2-carboxylic acid {3-[5-cyclopropyl-2-(3-fluoro-phenylamino)-pyrimidin-4-ylamino]-propyl}-amide] the figure was 100 to 1000 nM; with `O=C(NCCCNc1nc(Nc2cccc(F)c2)ncc1C1CC1)c1ccsc1` [Example 17, Thiophene-3-carboxylic acid {3-[5-cyclopropyl-2-(3-fluoro-phenylamino)-pyrimidin-4-ylamino]-propyl}-amide], less than 100 nM.
With `Cn1ccnc1C(=O)NCCCNc1nc(Nc2cccc(F)c2)ncc1C1CC1` [Example 18, 1-Methyl-1H-imidazole-2-carboxylic acid {3-[5-cyclopropyl-2-(3-fluoro-phenylamino)-pyrimidin-4-ylamino]-propyl}-amide], the IC50 lay in the range of 1000 to 10000 nM.
`O=C(NCCCNc1nc(Nc2cccc(F)c2)ncc1C1CC1)c1cocn1` [Example 19, Oxazole-4-carboxylic acid {3-[5-cyclopropyl-2-(3-fluoro-phenylamino)-pyrimidin-4-ylamino]-propyl}-amide]: the IC50 lay within 100 to 1000 nM.
On to `O=C(NCCCNc1nc(Nc2cccc(F)c2)ncc1C1CC1)c1nccs1` [Example 20, Thiazole-2-carboxylic acid {3-[5-cyclopropyl-2-(3-fluoro-phenylamino)-pyrimidin-4-ylamino]-propyl}-amide], for which the IC50 was less than 100 nM.
With `O=C(NCCCNc1nc(Nc2cccc(F)c2)ncc1C1CC1)c1ccc(Cl)s1` [Example 21, 5-Chloro-thiophene-2-carboxylic acid {3-[5-cyclopropyl-2-(3-fluoro-phenylamino)-pyrimidin-4-ylamino]-propyl}-amide] the figure was 100 to 1000 nM.
With `O=C(NCCCNc1nc(Nc2cccc(F)c2)ncc1C1CC1)C1CCCC1` [Example 22, Cyclopentanecarboxylic acid {3-[5-cyclopropyl-2-(3-fluoro-phenylamino)pyrimidin-4-ylamino]-propyl}-amide] the figure was less than 100 nM; with `O=C(CC1CC1)NCCCNc1nc(Nc2cccc(F)c2)ncc1C1CC1` [Example 24, 2-Cyclopropyl-N-{3-[5-cyclopropyl-2-(3-fluoro-phenylamino)-pyrimidin-4-ylamino]-propyl}-acetamide], less than 100 nM.
The value for `O=C(NCCCNc1nc(Nc2cccc(F)c2)ncc1C1CC1)C1CC1` [Example 25, Cyclopropanecarboxylic acid {3-[5-cyclopropyl-2-(3-fluoro-phenylamino)-pyrimidin-4-ylamino]-propyl}-amide] was 100 to 1000 nM; that for `O=C(NCCCNc1nc(Nc2cccc(F)c2)ncc1C1CC1)c1cccs1` [Example 26, Thiophene-2-carboxylic acid {3-[5-cyclopropyl-2-(3-fluoro-phenylamino)-pyrimidin-4-ylamino]-propyl}-amide] was 100 to 1000 nM.
As for `O=C(NCCCNc1nc(Nc2cccc(C(F)(F)F)c2)ncc1C1CC1)c1cccs1` [Example 27, Thiophene-2-carboxylic acid {3-[5-cyclopropyl-2-(3-trifluoromethyl-phenylamino)-pyrimidin-4-ylamino]-propyl}-amide], the IC50 fell in the range of 100 to 1000 nM.
With `CC(=O)Nc1ccc(Nc2ncc(C3CC3)c(NCCCNC(=O)c3cccs3)n2)cc1` [Example 28, Thiophene-2-carboxylic acid {3-[2-(4-acetylamino-phenylamino)-5-cyclopropyl-pyrimidin-4-ylamino]-propyl}-amide. Hydrochloride salt] the figure was less than 100 nM; with `O=C(NCCCNc1nc(Nc2cccc(O)c2)ncc1C1CC1)c1cccs1` [Example 29, Thiophene-2-carboxylic acid {3-[5-cyclopropyl-2-(3-hydroxy-phenylamino)-pyrimidin-4-ylamino]-propyl}-amide Trifluoroacetic acid salt], 1000 to 10000 nM; with `Cc1ccc(Nc2ncc(C3CC3)c(NCCCNC(=O)c3cccs3)n2)cn1` [Example 30, Thiophene-2-carboxylic acid {3-[5-cyclopropyl-2-(6-methyl-pyridin-3-ylamino)-pyrimidin-4-ylamino]-propyl}-amide], 1000 to 10000 nM.
The value for `CC(C)(C)OC(=O)Nc1cccc(Nc2ncc(C3CC3)c(NCCCNC(=O)c3cccs3)n2)c1` [Example 31, [3-(5-Cyclopropyl-4-{3-[(thiophene-2-carbonyl)-amino]-propylamino}-pyrimidin-2-ylamino)-phenyl]-carbamic acid tert-butyl ester] was 1000 to 10000 nM.
The value for `CS(=O)(=O)Nc1cccc(Nc2ncc(C3CC3)c(NCCCNC(=O)c3cccs3)n2)c1` [Example 32, Thiophene-2-carboxylic acid {3-[5-cyclopropyl-2-(3-methanesulfonylamino-phenylamino)-pyrimidin-4-ylamino]-propyl}-amide trifluoroacetic acid salt] was less than 100 nM.
For the compound `COC(=O)c1cccc(Nc2ncc(C3CC3)c(NCCCNC(=O)c3cccs3)n2)c1` [Example 33, 3-(5-Cyclopropyl-4-{3-[(thiophene-2-carbonyl)-amino]-propylamino}-pyrimidin-2-ylamino)-benzoic acid methyl ester trifluoroacetic acid salt], the IC50 lay in the range of 100 to 1000 nM.
